In patent US8889876B2, “Histone deacetylase inhibitors and uses thereof” (Jiangsu Hengyi Pharmaceutical Co., Ltd., priority 2008, dated 2014):
In brackets after ≈: the same amount, converted by molar mass.

What was measured:
[1] = system: A549 (human lung adenocarcinoma cells); test: MTT cytotoxicity to tumor cell strains, A549; assay type: cell-based
Method: (§1) The cytotoxicity of samples to tumor cell strains is determined through MTT.

[2] = system: MDA-MB-435s human breast cancer cells; test: CCK-8 proliferation inhibition, MDA-MB-435s; assay type: cell-based; details: CCK-8 method
Procedure, shortened: (§2)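 Inhibition rates were obtained by CCK-8 assay after treating cells with each compound at 100 μM or 10 μM.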

[3] = system: A549 human lung cancer cells; test: CCK-8 proliferation inhibition, A549; assay type: cell-based; details: CCK-8 method
Procedure, shortened: as §2

[4] = system: Hep3B2.1-7 human liver cancer cells; test: CCK-8 proliferation inhibition, Hep3B2.1-7; assay type: cell-based; details: CCK-8 method
Procedure, shortened: as §2

[5] = system: K562: human chronic myeloid leukemia cell strain; test: MTT cytotoxicity to tumor cell strains, K562; assay type: cell-based
Method: as §1

[6] = system: Hut 78 (T-cell Leukemia cell); test: MTT cytotoxicity to tumor cell strains, Hut 78; assay type: cell-based; details: Hut 78, MTT
Method: as §1

[7] = system: PC-3 human prostate cancer; test: CCK-8 proliferation inhibition, PC-3; assay type: cell-based; details: CCK-8 method
Procedure, shortened: as §2

[8] = system: K562 human chronic myeloid leukemia cells; test: CCK-8 proliferation inhibition, K562; assay type: cell-based
Procedure, shortened: as §2

[9] = system: Colo320 human rectal cancer cells; test: CCK-8 proliferation inhibition, Colo320; assay type: cell-based; details: CCK-8 method
Procedure, shortened: as §2

histone deacetylase [10] = test: in vitro inhibition activity on histone deacetylase (rat liver homogenate, MAL fluorescent substrate); assay type: biochemical, rats; details: n = 4, 37° C., 16 hours
Method: A 96-well plate (black) for determining […] is made by Costar Company of U.S. The histone deacetylase is obtained by homogenization of liver of rats. The histone deacetylase reacts with small molecular fluorescent substrate MAL such that the substrate MAL is deacetylated to become ML.
The compound to be detected is dissolved with 200 μL of DMSO. The stock solution of the compound to be detected is diluted with PBS to a concentration of the working solution. The histone deacetylase, the MAL fluorescent substrate and the compound to be detected are mixed in a water bath at 37° C. and reacted 16 hours. The final concentration of the compound to be detected is: MS275 and its similar compound: 10, 100 μmol/.
The reaction solution is extracted with ethyl acetate. The extract is pumped in vacuum and thereto added 110 μL of methanol (40%). Taking 50 μL/well to a 96-well plate and making a fluorescent detection at 325/390 nm.
The negative control wherein histone deacetylase is not added to the reaction is 100% inhibition. The control that only contains histone deacetylase without any inhibitor is the background (0% inhibition). The inhibition rate of the sample to be detected=(the detected fluorescent value−the background)/(the fluorescent value of the negative control−background)×100%
The inhibition rate and the standard deviation in the results are the average inhibition percentage and the standard deviation of each parallel well in each dosage group.

[11] = system: Jurkat E6-1 human T-cell lymphoma; test: CCK-8 proliferation inhibition, Jurkat E6-1; assay type: cell-based
Procedure, shortened: as §2

[12] = system: Hut78 T-cell Leukemia cell; test: CCK-8 proliferation inhibition, Hut78; assay type: cell-based
Procedure, shortened: as §2

[13] = system: PANC-1 human pancreatic cancer cells; test: CCK-8 proliferation inhibition, PANC-1; assay type: cell-based
Procedure, shortened: as §2

histone deacetylase [14] = test: in vitro inhibition of histone deacetylase by HDAC inhibitor screening kit (Biovision K340-100); assay type: biochemical
Method: An assay for determining the in vitro inhibition activity of the compound on histone deacetylase is conducted according to the specification of HDAC inhibitor screeing kid (Biovision Company/Catalog #K340-100). […]

| Compound | Cell activity (IC50, μg/ml) A549 [1] [µg/mL] | 435s(inhibition %) ([2]; compound concentration 10 μM) [%] | 435s(inhibition %) ([2]; compound concentration 100 μM) [%] | A549 (inhibition %) ([3]; compound concentration 10 μM) [%] | A549 (inhibition %) ([3]; compound concentration 100 μM) [%] | Hep3B (inhibition %) ([4]; compound concentration 10 μM) [%] | Hep3B (inhibition %) ([4]; compound concentration 100 μM) [%] | Cell activity (IC50, μg/ml) K562 [5] [µg/mL] | Cell activity (IC50, μg/ml) Hut 78 [6] [µg/mL] | PC-3 (inhibition %) ([7]; compound concentration 10 μM) [%] | PC-3 (inhibition %) ([7]; compound concentration 100 μM) [%] | K562 (inhibition %) ([8]; 10 μM) [%] | K562 (inhibition %) ([8]; 100 μM) [%] | Colo320 (inhibition %) ([9]; compound concentration 10 μM) [%] | Colo320 (inhibition %) ([9]; compound concentration 100 μM) [%] | inhibition rate % average number (histone deacetylase [10]; dosage 10 μmol/L) [%] | inhibition rate % average number (histone deacetylase [10]; dosage 100 μmol/L) [%] | Jurkat E6-1 (inhibition %) ([11]; 10 μM) [%] | Jurkat E6-1 (inhibition %) ([11]; 100 μM) [%] | Hut-78 (inhibition %) ([12]; 10 μM) [%] | also measured |
| --- | --- | --- | --- | --- | --- | --- | --- | --- | --- | --- | --- | --- | --- | --- | --- | --- | --- | --- | --- | --- | --- |
| N-(2-amino-4-pyridyl)-4-[(2-naphthylmethoxyacyl)aminomethyl]benzamide [V-24] | 7.11 | 49.8 | 50.4 | 48.7 | 65.7 | 24.8 | 13.5 | 6.23 | 0.30 | 5.1 | 3.4 | 42.8 | 29.7 | −2.3 | −17.1 | 46.547 | 70.300 | 37.2 | 22.1 | 26.2 | Hut-78 (inhibition %) ([12]; 100 μM): 20.7%; PANC-1 (inhibition %) ([13]; 10 μM): 8.0%; PANC-1 (inhibition %) ([13]; 100 μM): 7.8% |
| Nc1ccccc1NC(=O)c1ccc(CNC(=O)OCc2cccnc2)cc1 [MS-275, reference compound] | 24.42 | 2.7 | 59.3 | 58.9 | 92.3 | 10.8 | 52.1 | 3.20 | 0.15 | 12.5 | 71.5 | 66.2 | 74.6 | 18.0 | 61.6 | 45.588 | 66.300 | 89.5 | 96.1 | 61.8 | Inhibition rate(%) (histone deacetylase [14]; 3.91 μM): 32.5%; Inhibition rate(%) (histone deacetylase [14]; 62.5 μM): 60.5%; Inhibition rate(%) (histone deacetylase [14]; 2 mM): 82.2%; Hut-78 (inhibition %) ([12]; 100 μM): 85.3%; PANC-1 (inhibition %) ([13]; 10 μM): 12.4%; PANC-1 (inhibition %) ([13]; 100 μM): 31.6% |
| O=C(NCc1ccc(C(=O)Nc2cccnc2)cc1)OCc1cccnc1 [V-3, N-(3-pyridyl)-4-[(3-pyridylmethoxyacyl)aminomethyl]benzamide] |  |  |  |  |  |  |  |  |  |  |  |  |  |  |  | 0.170 | 0.481 |  |  |  | IC50 ([1]; Homo sapiens, read-out: Cell activity (IC50, μg/ml) A549): > 100 µg/mL; IC50 ([5]; Homo sapiens, read-out: Cell activity (IC50, μg/ml) K562): > 100 µg/mL; IC50 ([6]; Homo sapiens, HuT78, read-out: Cell activity (IC50, μg/ml) Hut 78): 38.8 µg/mL (≈ 107 µM) |
